# In article PMC8815882, “Screening the pandemic response box identified benzimidazole carbamates, Olorofim and ravuconazole as promising drug candidates for the treatment of eumycetoma” (PLoS Neglected Tropical Diseases, 2022):
# pIC50: −log10 of the molar value. Read-outs that look alike come from different tables or passages of the source.
# Columns and labels:
# [1] = tested on: M. mycetomatis genome strain MM55; assay: CLSI M38-A2 based in vitro susceptibility screening (XTT or resazurin), growth at fixed concentration; type: cell-based, Madurella mycetomatis; details: Madurella mycetomatis
# M. mycetomatis MM55 = assay: IC50 determination, 2-fold dilution series 16 to 0.03125 μM; type: cell-based, Madurella mycetomatis; details: Madurella mycetomatis
# [2] = tested on: ten different M. mycetomatis isolates; assay: MIC / MIC50 determination (XTT) in ten M. mycetomatis isolates; type: cell-based, Madurella mycetomatis; details: Madurella mycetomatis
# [3] = tested on: M. mycetomatis isolate MM55; assay: M. mycetomatis grain infection model in G. mellonella larvae, survival; type: in vivo, Galleria mellonella; set-up: In vivo efficacy, Larvae survival %: concentration or dose not given beside the values
# M. mycetomatis = assay: Drug static or cidal determination; type: cell-based, Madurella mycetomatis
# From the text: Supplement pntd.0010159.s001.xlsx, sheet "Pandemic Box Master sheet" | column: Drug static or cidal
smiles,measurement,setting,value
Oc1c(C(Nc2nc3ccccc3s2)c2ccc(OC(F)F)cc2)ccc2cccnc12 (centres unmarked) [MMV019724],activity at 25 µM,"[1]; mean of replicates, read-out: Percentage survival at 25um, 25 uM mean",9.22%
same,activity at 25 µM,"[1]; replicate A, read-out: Percentage survival at 25um, 25 um A",14.5%
same,activity at 25 µM,"[1]; replicate B, read-out: Percentage survival at 25um, 25 uM B",1.51%
same,activity at 25 µM,"[1]; replicate C, read-out: Percentage survival at 25um, 25 uM C",11.7%
same,activity at 100 µM,"[1]; 100 uM, mean of replicates, read-out: Percentage survival at 100um, 100 uM mean",16.7%
same,activity at 100 µM,"[1]; 100 uM, replicate 1, read-out: Percentage survival at 100um, 100 uM A (first replicate column)",15.6%
same,Percent fungal survival at 100 µM,"[1]; 100 uM, replicate 2, read-out: Percentage survival at 100um, 100 uM A (second replicate column)",13.5%
same,activity at 100 µM,"[1]; 100 uM, replicate 3, read-out: Percentage survival at 100um, 100 uM A (third replicate column)",20.9%
same,pIC50,"M. mycetomatis MM55; MM55, Table 2, M. mycetomatis MM55, read-out: IC50",5.31
same,pIC50,"M. mycetomatis MM55; MM55, mean of replicates, read-out: IC50 mean",5.31
same,IC90,"M. mycetomatis MM55; MM55, mean of replicates, read-out: IC90 mean",18.2 µM
same,pIC50,"M. mycetomatis MM55; MM55, replicate 1, read-out: IC50 1",5.57
same,IC90,"M. mycetomatis MM55; MM55, replicate 1, read-out: IC90 1",14 µM
same,pIC50,"M. mycetomatis MM55; MM55, replicate 2, read-out: IC50 2",5.53
same,IC90,"M. mycetomatis MM55; MM55, replicate 2, read-out: IC90 2",19.2 µM
same,pIC50,"M. mycetomatis MM55; MM55, replicate 3, read-out: IC50 3",5.05
same,IC90,"M. mycetomatis MM55; MM55, replicate 3, read-out: IC90 3",21.4 µM
same,MIC50,"[2]; median MIC over ten M. mycetomatis isolates, no asterisk, read-out: MIC50",4 µM
same,MIC,"[2]; isolate CBS247.48, read-out: MIC CBS247.48",8 µM
same,MIC,"[2]; isolate MM14, read-out: MIC MM14",> 16 µM
same,MIC,"[2]; isolate MM45, read-out: MIC MM45",> 16 µM
same,MIC,"[2]; isolate MM55, read-out: MIC MM55",8 µM
same,MIC,"[2]; isolate P1, read-out: MIC P1",4 µM
same,MIC,"[2]; isolate ParijsAl1, read-out: MIC ParijsAl1",2 µM
same,MIC,"[2]; isolate Peru72012, read-out: MIC Peru72012",2 µM
same,MIC,"[2]; isolate So1, read-out: MIC So1",4 µM
same,MIC,"[2]; isolate i1, read-out: MIC i1",2 µM
same,MIC,"[2]; isolate i11, read-out: MIC i11",16 µM
same,MIC50,"[2]; over ten M. mycetomatis isolates, read-out: MIC50 mean",4 µM
same,"In vivo efficacy, Larvae survival %",[3]; G. mellonella larvae infected with M. mycetomatis,13.3%
same,"In vivo efficacy, Enhanced survival compared to control?",[3]; in vivo,no
same,Drug static or cidal,M. mycetomatis,Static
